Laboratory results published in BindingDB's records for patent US20250313563 (The Broad Institute, 2025).
“And” between values parts separate entries of the source, which are not always exact repeats. Identical values can stand only once.

How the values were obtained:
[1] = target: Glycogen synthase kinase-3 beta (Homo sapiens, UniProt P49841); assay: TR-FRET Assay
Protocol: (§1) The assay was performed in a white, 384 well, low volume, flat bottom plate (Grenier). […] The kinase activity was quenched with 2 μL of 250 mM EDTA. A 10 μL volume of 40 nM Strepavidin-d2, 2 nM Tb2+-pSer641 antibody in TR-FRET Detection Buffer (Invitrogen) was then added.

[2] = target: Glycogen synthase kinase-3 alpha (Homo sapiens, UniProt P49840); assay: TR-FRET Assay
Protocol: as §1

Chain of Glycogen synthase kinase-3 alpha (P49840 whole entry): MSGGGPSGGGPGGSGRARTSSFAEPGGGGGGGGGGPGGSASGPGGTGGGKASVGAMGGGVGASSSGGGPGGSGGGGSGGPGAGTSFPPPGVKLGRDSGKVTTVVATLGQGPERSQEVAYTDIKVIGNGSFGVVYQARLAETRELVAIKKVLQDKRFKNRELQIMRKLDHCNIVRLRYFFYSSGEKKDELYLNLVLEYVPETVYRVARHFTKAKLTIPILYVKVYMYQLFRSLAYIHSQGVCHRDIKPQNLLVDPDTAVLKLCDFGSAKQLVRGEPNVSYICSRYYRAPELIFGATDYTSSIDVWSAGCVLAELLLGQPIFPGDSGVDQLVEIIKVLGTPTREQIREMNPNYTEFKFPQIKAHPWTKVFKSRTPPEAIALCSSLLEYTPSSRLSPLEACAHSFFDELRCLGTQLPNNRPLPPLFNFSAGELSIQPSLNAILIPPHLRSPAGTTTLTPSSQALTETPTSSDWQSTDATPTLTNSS
Chain of Glycogen synthase kinase-3 beta (P49841 whole entry): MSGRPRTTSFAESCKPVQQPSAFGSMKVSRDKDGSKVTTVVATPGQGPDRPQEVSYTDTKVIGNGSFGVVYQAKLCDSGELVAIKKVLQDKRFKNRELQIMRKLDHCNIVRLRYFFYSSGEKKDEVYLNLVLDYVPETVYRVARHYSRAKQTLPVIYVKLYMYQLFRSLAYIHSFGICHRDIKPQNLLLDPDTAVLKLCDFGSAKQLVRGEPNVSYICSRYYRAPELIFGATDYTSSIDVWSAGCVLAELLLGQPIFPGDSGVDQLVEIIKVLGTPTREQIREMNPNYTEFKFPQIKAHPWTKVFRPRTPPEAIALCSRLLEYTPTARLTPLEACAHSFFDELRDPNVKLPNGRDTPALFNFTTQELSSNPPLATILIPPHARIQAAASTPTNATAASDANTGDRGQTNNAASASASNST

SMILES | IC50 [1] | IC50 [2]
CCC1(c2cccc(N3CCCCC3)c2)C2=C(CC(C)(C)NC2=O)NC2N=NC(C(F)(F)F)=C21 (centres undefined) [US20250313563, Compound 947861] | < 100 nM and 100 to 1000 nM | < 100 nM
CCC1(c2cccc(S(=O)(=O)C3CC3)c2)C2=C(CC(C)(C)NC2=O)NC2=C1C(C(F)(F)F)N=N2 (centres undefined) [US20250313563, Compound 947859] | < 100 nM | < 100 nM
CCC1(c2cccc(-c3cncn3C(C)C)c2)C2=CN=NC2NC2=C1C(=O)CC(C)(C)C2F (centres undefined) [US20250313563, Compound 963155] | < 100 nM | < 100 nM
CC[C@@]1(c2cccc(N(c3cccnc3)C(C)C)c2)C2=CN=NC2NC2=C1C(=O)CC(C)(C)C2 (some centres undefined) [US20250313563, Compound 917087] | 1000 to 5000 nM | 100 to 1000 nM
CC[C@]1(c2cccc(-c3cncn3C)c2)C2=C(CC(C)(C)CC2=O)NC2N=NC(C)=C21 (some centres undefined) [US20250313563, Compound 913037] | 100 to 1000 nM | < 100 nM
CCC1(c2cccc(-c3ccnc(C)n3)c2)C2=CN=NC2NC2=C1C(=O)CC(C)(C)C2 (centres undefined) [US20250313563, Compound 948088] | 1000 to 5000 nM | 100 to 1000 nM
CC1(C)CC(=O)C2=C(C1)NC1=C(CN=N1)C21CC(C)(C)C1 [US20250313563, Compound 883864] | 100 to 1000 nM | < 100 nM
CC1(C)CC(=O)C2=C(C1)NC1=C(CN=N1)C21CN(C2CCOCC2)C1 [US20250313563, Compound 932651] | > 5000 nM | > 5000 nM
CC[C@@]1(c2cccc(C(F)(F)F)c2)C2=CN=NC2NC2=C1C(=O)N(c1cccc(C)c1)CC2 (some centres undefined) [US20250313563, Compound 949041] | > 5000 nM | 1000 to 5000 nM
CC[C@]1(c2cccc(-c3ccnc4ccc(OC)cc34)c2)C2=CN=NC2NC2=C1C(=O)NC(C)(C)C2 (some centres undefined) [US20250313563, Compound 948518] | > 5000 nM | > 5000 nM
CCC1(c2cccc(S(C)(=O)=O)c2)C2=C(CC(C)(C)NC2=O)NC2N=NC(C)=C21 (centres undefined) [US20250313563, Compound 947395] | 100 to 1000 nM | 100 to 1000 nM
CCC1(c2cccc(-c3c(F)cncc3OC)c2)C2=CN=NC2NC2=C1C(=O)CC(C)(C)C2 (centres undefined) [US20250313563, Compound 945704] | < 100 nM and 100 to 1000 nM | < 100 nM
CC[C@@]1(c2cccc(-c3ccnc(C)c3F)c2)C2=C(CC(C)(C)CC2=O)NC2N=NC(C)=C21 (some centres undefined) [US20250313563, Compound 927340] | > 5000 nM | > 5000 nM
CC1(C)CC(=O)C2=C(C1)NC1=C(CN=N1)C21COC2(CN(C(=O)c3ccc(F)cc3)C2)C1 (centres undefined) [US20250313563, Compound 947292] | < 100 nM | < 100 nM
CC1(C)CC(=O)C2=C(C1)NC1=C(CN=N1)C21CCN(S(=O)(=O)c2ccc(Cl)c(Cl)c2)CC1 [US20250313563, Compound 945660] | < 100 nM | < 100 nM
CCC1(c2cccc(C)c2)C2=CN=NC2NC2=C1C(=O)CC(C)(C)C2 (centres undefined) [US20250313563, Compound 785738] | 100 to 1000 nM | < 100 nM
CCC1(c2cccc(-c3cc(C)ncc3F)c2)C2=C(CC(C)(C)NC2=O)NC2N=NC(C)=C21 (centres undefined) [US20250313563, Compound 948761] | < 100 nM | < 100 nM
Cc1cccc(C(=O)N2CC3(C2)CC2(CO3)C3=C(N=NC3)NC3=C2C(=O)CC(C)(C)C3)c1C (centres undefined) [US20250313563, Compound 947284] | 100 to 1000 nM | < 100 nM
CCC1(c2cccc(-c3ccnn3CCC(C)C)c2)C2=CN=NC2NC2=C1C(=O)CC(C)(C)C2 (centres undefined) [US20250313563, Compound 929401] | < 100 nM | < 100 nM
CC1(C)CC(=O)C2=C(C1)NC1=C(CN=N1)C21CN(S(=O)(=O)c2ccccc2)C1 [US20250313563, Compound 901474] | < 100 nM | < 100 nM
CC[C@@]1(c2cccc(N(C)c3ccnc(OC)c3)c2)C2=CN=NC2NC2=C1C(=O)CC(C)(C)C2 (some centres undefined) [US20250313563, Compound 932662] | > 5000 nM | > 5000 nM
CC[C@@]1(c2cccc(-c3ccncc3)c2)C2=CN=NC2NC2=C1C(=O)C[C@H](C)C2 (some centres undefined) [US20250313563, Compound 874316] | 1000 to 5000 nM | 100 to 1000 nM
CC[C@@]1(c2cccc(-c3ccncc3C(F)(F)F)c2)C2=CN=NC2NC2=C1C(=O)NC(C)(C)C2 (some centres undefined) [US20250313563, Compound 952025] | < 100 nM and 1000 to 5000 nM | < 100 nM
CCC1(c2cccc(Oc3ncccn3)c2)C2=CN=NC2NC2=C1C(=O)CC(C)(C)C2 (centres undefined) [US20250313563, Compound 947400] | < 100 nM | < 100 nM
CC1(C)CC(=O)C2=C(C1)NC1=C(CN=N1)C21CCCSCC1 (centres undefined) [US20250313563, Compound 913126] | 100 to 1000 nM | < 100 nM
CCC1(c2cccc(C(C)C)c2)C2=C(CC(C)(C)NC2=O)NC2N=NC(C)=C21 (centres undefined) [US20250313563, Compound 949173] | < 100 nM | < 100 nM

SMILES | IC50 [1] | IC50 [2]
CCC1(c2cccc(-c3cn(C)nc3C)c2)C2=CN=NC2NC2=C1C(=O)CC(C)(C)C2 (centres undefined) [US20250313563, Compound 926840] | < 100 nM | < 100 nM
CC[C@@]1(c2cccc(-c3cncn3C)c2)C2=C(CC(C)(C)CC2=O)NC2N=NC(C)=C21 (some centres undefined) [US20250313563, Compound 913032] | < 100 nM | < 100 nM
CC[C@]1(c2cccc(-c3ccnn3-c3ccc(F)cc3)c2)C2=CN=NC2NC2=C1C(=O)NC(C)(C)C2 (some centres undefined) [US20250313563, Compound 949396] | > 5000 nM | > 5000 nM
CCC1(c2cccc(N(C)c3cc(C)ccn3)c2)C2=CN=NC2NC2=C1C(=O)CC(C)(C)C2 (centres undefined) [US20250313563, Compound 943537] | 100 to 1000 nM | < 100 nM
CC1(C)CC(=O)C2=C(C1)NC1N=NC(Br)=C1[C@@]21CCc2c(F)cccc21 (some centres undefined) [US20250313563, Compound 806938] | 1000 to 5000 nM | 100 to 1000 nM
CCC1(c2ccccc2)C2=C(N=NC2)NC2=C1C(=O)C1CCC21 (centres undefined) [US20250313563, Compound 861716] | > 5000 nM | 1000 to 5000 nM
CCC1(c2cccc(C(F)(F)F)c2)C2=CN=NC2NC2=C1C(=O)N(c1cscn1)CC2 (centres undefined) [US20250313563, Compound 950777] | 100 to 1000 nM | < 100 nM
CC[C@]1(c2cccc(S(=O)(=O)CCOC)c2)C2=CN=NC2NC2=C1C(=O)CC(C)(C)C2 (some centres undefined) [US20250313563, Compound 943542] | < 100 nM and 1000 to 5000 nM | < 100 nM and 100 to 1000 nM
CC1(C)CC(=O)C2=C(C1)NC1=C(CN=N1)C21COC2(CN(C(=O)CC3CCCCC3)C2)C1 (centres undefined) [US20250313563, Compound 947305] | < 100 nM | < 100 nM
CC1(C)CC(=O)C2=C(C1)NC1=NN=C(Br)C1C21CCNc2ccccc21 (centres undefined) [US20250313563, Compound 810460] | > 5000 nM | 1000 to 5000 nM
CC[C@]1(c2cccc(-c3ccncc3)c2)C2=C(CC(C)(C)CC2=O)NC2N=NC(C(F)(F)F)=C21 (some centres undefined) [US20250313563, Compound 917293] | < 100 nM | < 100 nM
CC[C@@]1(c2cccc(-c3cn(C)nc3C(C)C)c2)C2=CN=NC2NC2=C1C(=O)NC(C)(C)C2 (some centres undefined) [US20250313563, Compound 949111] | 1000 to 5000 nM | 100 to 1000 nM
CCC1(c2cccc(N(CCc3ccccc3)C(C)=O)c2)C2=CN=NC2NC2=C1C(=O)CC(C)(C)C2 (centres undefined) [US20250313563, Compound 912064] | < 100 nM | < 100 nM
CC1(C)CC(=O)C2=C(C1)NC1=C(CN=N1)C21COC2(CN(C(=O)C3(F)CCC3)C2)C1 (centres undefined) [US20250313563, Compound 947279] | < 100 nM | < 100 nM
C[C@H]1C[C@@]2(CCO1)C1=C(N=NC1)NC1=C2C(=O)CC(C)(C)C1 [US20250313563, Compound 924307] | 100 to 1000 nM | 100 to 1000 nM
CC[C@]1(c2cccc(-c3ccncc3F)c2)C2=C(CC(C)(C)NC2=O)NC2N=NC(C(F)F)=C21 (some centres undefined) [US20250313563, Compound 951612] | < 100 nM and 1000 to 5000 nM | < 100 nM and 100 to 1000 nM
CCOc1ccc(S(=O)(=O)N2CCC3(CC2)C2=C(N=NC2)NC2=C3C(=O)CC(C)(C)C2)cc1 [US20250313563, Compound 945670] | < 100 nM and 1000 to 5000 nM | < 100 nM and 100 to 1000 nM
CCC1(c2cccc(C(F)(F)F)c2)C2=CN=NC2NC2=C1C(=O)N(c1cccc(C)c1)CC2 (centres undefined) [US20250313563, Compound 948052] | 100 to 1000 nM | < 100 nM
CC[C@]1(c2cccc(C(F)F)c2)C2=CN=NC2NC2=C1C(=O)NC(C)(C)C2 (some centres undefined) [US20250313563, Compound 949007] | > 5000 nM | 1000 to 5000 nM
CC1CCCC1C(=O)N1CC2(C1)CC1(CO2)C2=C(N=NC2)NC2=C1C(=O)CC(C)(C)C2 (centres undefined) [US20250313563, Compound 947274] | 100 to 1000 nM | < 100 nM
CCC1(c2cccc(C(F)(F)F)c2)C2=CN=NC2NC2=C1C(=O)N(c1cnn(C)c1C)CC2 (centres undefined) [US20250313563, Compound 950612] | 1000 to 5000 nM | < 100 nM
CC[C@]1(c2cccc(C(F)(F)F)c2)C2=CN=NC2NC2=C1C(=O)N[C@H](C)C2 (some centres undefined) [US20250313563, Compound 912096] | 100 to 1000 nM | < 100 nM
CC[C@]1(c2cc(N(C)C(C)=O)ccc2F)C2=C(CC(C)(C)CC2=O)NC2N=NC(C)=C21 (some centres undefined) [US20250313563, Compound 929451] | > 5000 nM | > 5000 nM
CC[C@]1(c2cccc(-c3ccnc(OC(F)(F)F)c3)c2)C2=CN=NC2NC2=C1C(=O)CC(C)(C)C2 (some centres undefined) [US20250313563, Compound 943988] | 1000 to 5000 nM | 100 to 1000 nM
CC[C@@]1(c2cccc(-c3cnn(C)c3)c2)C2=CN=NC2NC2=C1C(=O)CC(C)(C)[C@@H]2F (some centres undefined) [US20250313563, Compound 957511] | 100 to 1000 nM and > 5000 nM | < 100 nM and 100 to 1000 nM
CC[C@]1(c2cccc(C3=CN=NC3)c2)C2=C(CC(C)(C)NC2=O)NC2N=NC(C(F)(F)F)=C21 (some centres undefined) [US20250313563, Compound 948307] | < 100 nM | < 100 nM
